Tests used:
Type in all cases: cell-based, human
[1] = test system: derived cell line NAS1604C; experiment: On chip drug screening of derived cell line
Procedure: (§1) On chip drug screening was performed using the PDMS-based microfluidic chip as described above. A 500 μL glass syringe (Hamilton, USA) and polytetrafluoroethylene (PTFE) tubings with appropriate bore (Cole Parmer, USA) was used to connect between the syringe pump (Harvard Apparatus PHD Ultra Syringe Pump, USA) and the microfluidic chip. Fluorinert® FC-40 (Sigma-Aldrich, USA) supplemented with 2% 008-Fluorosurfactant (Ran Biotechnologies, USA) was used as oil phase; relevant cell culture medium, supplemented with 1% (w/v) methyl cellulose (Sigma-Aldrich, USA) was used as aqueous phase. Cells treated with 0.1% dimethyl sulfoxide (DMSO) were used as negative control.
(§2) Briefly, cells at final concentrations of 1-2×10^6 cells per mL were aliquoted in 0.2 mL PCR tubes, then mixed with corresponding drugs and 2 μM ethidium homodimer 1 (Life Technologies, USA) by manual pipetting. Next, […], cell-drug mixtures were loaded into the tubing, consecutively segregated by oil phase at withdrawal rate of 200 μL/h by syringe pump. After loading all mixtures, the tubing was inserted into the microfluidic chip, which was back-flushed with oil phase at 500 μL/h by syringe pump. After that, the mixtures were infused at 25 μL/h by syringe pump. Finally, the inlet and outlet tubings were cut and sealed with Vaseline (Vaseline, USA). The chips were placed in 150 mm cell culture dish (Coming, USA) containing wet paper towels, and transferred to humidified incubator at 37° C. supplemented with 5% CO2 for 16-24 h incubation. Brightfield and red fluorescence images (Ex. 531/40 nm, Em. 593/40 nm) were taken under 10× magnification (Life Technologies EVOS FL Imaging System, USA).
(§3) For on chip assays, the number of cells was counted in brightfield and red fluorescence images from each well respectively. Cell viability was calculated as follows: […]
where Total cells and Dead cells referred to the total number of cells counted from brightfield and red fluorescence images, respectively.
Drug susceptibility between the primary tumor cell NAS1604 and its derived cell line NAS1604C was compared (FIG. 9). […] Here, the concept of droplet cell viability was introduced to indicate the total number of live cells among all cells in each individual droplet; in turn, the range of droplet cell viability referred to the range of cell viability of all droplets under specified treatment condition. […] On the other hand, mean cell viability of all treatment conditions were higher in the derived cell line NAS1604C than corresponding conditions in the primary tumor cell NAS1604, reminiscent of increased cell viability that was required for tumor amplification.

MDA-MB-231 cells [2] = experiment: On chip drug screening assay (ethidium homodimer 1 staining)
Procedure: (§4) Jurkat E6.1 cells (ATCC® TIB-152™) and MDA-MB-231 cells (ATCC® HTB-26™) were used as models for suspended and adherent cancer cell lines respectively. Jurkat cell line was derived from human acute T cell leukemia, whereas MDA-MB-231 cell line was derived from human metastatic breast adenocarcinoma.
as §1, §2
For on chip assays, brightfield and red fluorescence images were initially processed by ImageJ v.1.50i, Cell counting was either performed manually or by Matlab v.R201.5a based on the workflow shown on FIG. 5B. Briefly, cells from brightfield and red fluorescence images were detected separately using a heuristic Hough Transformation model based on threshold implementation on circular diameter and pixel intensity. Next, each recognized cell was dissected into 10×10 pixels matrix for analysis of its pixel intensity. Subsequently, two layers of multi-radii analysis of pixel intensity around the center of each matrix distinguished signal from noise. Afterwards, cells were distinguished from noise based on the brightfield image, whereas cell viability was determined by signal intensity of corresponding red fluorescence image. Finally, positional information (defined by row: x, and column: y) and size (defined by radius: r) of discrete image matrix was used to classify each cell as “live” or “dead”. The total number of cells in each image corresponding to each droplet formation well on chip was summarized as a table in CSV format for calculation of cell viability. […]
as §3
where Total cells and Dead cells referred to the total number of cells counted from brightfield and red fluorescence images, respectively. […]

MDA-MB-231 cells [3] = experiment: 384-well microtiter plate drug screening assay (Alamar Blue); details: 384-well plate
Procedure: as §4
(§5) Microtiter plate drug screening assays were carried out on 96-well clear round flat-bottom plates (Corning, USA) or 384-well white square flat-bottom plates (Corning, USA).
(§6) First, 5.0×10^5 or 1.0×10^5 cells were seeded per well for 96-well and 384-well plates respectively. Drugs were diluted with Dulbecco's phosphate-buffered saline (DPBS) (Life Technologies, USA), and subsequently added to achieve final drug concentrations as indicated on the graphs. Afterwards, the plates were transferred to humidified incubator at 37° C. supplemented with 5% CO2 for 16-24 h incubation. Finally, Alamar Blue assay was used to measure cell viability. Fluorescence intensity (Ex. 560 nm, Em. 590 nm) using auto-cutoff was measured from bottom on plate reader (Molecular Devices SpectraMax MS Plate Reader, USA). Cells treated with 0.1% dimethyl sulfoxide (DMSO) were used as negative control, while no cells were added to blank control. All experiments were performed in triplicate for 96-well plates and in quadruplicates for 384-well relates.
(§7) For microliter plate assays, average relative fluorescence signal measured by plate reader from 6 reads of each well was used as raw data point. Cell viability was calculated as follows: […]
(§8) where Sample represented raw data points of each sample well, whereas DMSO control and Blank represented average raw data points of all DMSO control and Blank wells, respectively.

Jurkat cells = experiment: as above; details: 384-well plate, 16-24 h
Procedure: as §4, §5, §6, §7, §8

IC50 (MDA-MB-231 cells [2]; Homo sapiens) [µM] | IC50 (Jurkat cells; Homo sapiens) [µM] | Compound | droplet cell viability range ([1]; 1 μM bortezomib) [%] | droplet cell viability range after removal of one droplet outlier ([1]; 1 μM bortezomib) [%] | cell viability compared with mock treatment ([1]; 1 μM, versus DMSO) | viability at 10 µM (MDA-MB-231 cells [3]; Homo sapiens, 10.0 μM dose, read-out: cell viability) [%] | droplet cell viability range ([1]; 11 μM cisplatin) [%] | droplet cell viability range ([1]; 33 μM cisplatin) [%] | droplet cell viability range after removal of one droplet outlier ([1]; 33 μM cisplatin) [%] | dose dependence of response ([1]; 11 and 33 μM) | IC50 (MDA-MB-231 cells [2]) [µM] | IC50 (MDA-MB-231 cells [3]) [µM] | IC50 (Jurkat cells) [µM]
> 10 | 0.039 | CC(C)C[C@H](NC(=O)[C@H](Cc1ccccc1)NC(=O)c1cnccn1)B(O)O [bortezomib] | 37.5 | 16.1 | highest cell viability | 50 |  |  |  |  |  |  | 
 |  | N.N.[Cl][Pt][Cl] [cisplatin] |  |  |  |  | 36.5 | 71.6 | 40.8 | dose-dependent response | 4.2 | > 50 | 39
